In paper PMC5862592, “CDK8/19 inhibition induces premature G1/S transition and ATR-dependent cell death in prostate cancer cells” (Oncotarget, 2018):
Read-outs that look alike come from different tables or passages of the source.

Key:
HASPIN [1] = target: T1, HASPIN (Homo sapiens, UniProt Q8TF76); assay: biochemical; parameters: KINOMEscan active site-directed competition binding assay (DiscoveRx), 456 kinases, per cent of control at 300 nM; conditions: sheet T-418; read-out: Percent of Control (%)
T1 sequence (Q8TF76 whole entry): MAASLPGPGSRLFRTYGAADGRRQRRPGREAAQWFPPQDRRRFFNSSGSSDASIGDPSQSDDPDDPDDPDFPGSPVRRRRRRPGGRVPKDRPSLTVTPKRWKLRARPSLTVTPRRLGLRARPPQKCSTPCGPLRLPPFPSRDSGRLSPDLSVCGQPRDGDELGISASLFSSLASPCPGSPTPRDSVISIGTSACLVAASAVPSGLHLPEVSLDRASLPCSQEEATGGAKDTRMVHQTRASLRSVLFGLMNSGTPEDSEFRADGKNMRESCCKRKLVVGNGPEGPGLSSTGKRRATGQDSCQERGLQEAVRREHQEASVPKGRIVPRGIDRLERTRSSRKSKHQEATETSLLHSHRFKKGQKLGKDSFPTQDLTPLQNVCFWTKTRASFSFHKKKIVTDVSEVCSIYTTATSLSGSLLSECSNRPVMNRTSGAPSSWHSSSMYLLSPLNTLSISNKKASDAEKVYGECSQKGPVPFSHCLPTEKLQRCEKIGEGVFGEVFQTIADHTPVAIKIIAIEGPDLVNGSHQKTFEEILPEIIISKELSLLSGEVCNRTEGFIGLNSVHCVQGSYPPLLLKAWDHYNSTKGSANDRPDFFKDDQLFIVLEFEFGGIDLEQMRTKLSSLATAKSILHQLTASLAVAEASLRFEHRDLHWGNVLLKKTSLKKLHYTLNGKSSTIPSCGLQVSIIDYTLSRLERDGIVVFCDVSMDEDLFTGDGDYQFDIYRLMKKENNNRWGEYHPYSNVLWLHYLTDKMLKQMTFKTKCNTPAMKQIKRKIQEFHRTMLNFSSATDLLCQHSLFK
Summary of the method: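 Kinase panel (456 enzymes) profiled by competitive displacement at the active site; compounds run at 300 nmol/L.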

CDK8 = CDK8 (Homo sapiens, UniProt P49336); assay: TR-FRET ligand displacement assay (Kinase Tracer […], Tb-anti-GST); format: binding; parameters: GST-CDK8; with Cyclin C
CDK8, sequence (P49336 whole entry): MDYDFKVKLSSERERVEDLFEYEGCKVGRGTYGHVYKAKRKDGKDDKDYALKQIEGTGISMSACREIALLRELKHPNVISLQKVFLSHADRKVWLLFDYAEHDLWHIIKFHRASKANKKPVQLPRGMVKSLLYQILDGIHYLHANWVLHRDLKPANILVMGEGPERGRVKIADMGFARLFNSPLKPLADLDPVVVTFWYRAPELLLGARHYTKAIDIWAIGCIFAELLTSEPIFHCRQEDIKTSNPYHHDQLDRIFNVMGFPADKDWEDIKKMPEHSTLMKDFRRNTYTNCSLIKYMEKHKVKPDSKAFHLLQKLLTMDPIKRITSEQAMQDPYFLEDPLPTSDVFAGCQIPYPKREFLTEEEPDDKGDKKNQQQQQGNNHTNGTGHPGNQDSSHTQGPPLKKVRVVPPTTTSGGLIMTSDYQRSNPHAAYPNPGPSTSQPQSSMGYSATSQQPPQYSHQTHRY
CDK8, sequence (P24863 whole entry partner): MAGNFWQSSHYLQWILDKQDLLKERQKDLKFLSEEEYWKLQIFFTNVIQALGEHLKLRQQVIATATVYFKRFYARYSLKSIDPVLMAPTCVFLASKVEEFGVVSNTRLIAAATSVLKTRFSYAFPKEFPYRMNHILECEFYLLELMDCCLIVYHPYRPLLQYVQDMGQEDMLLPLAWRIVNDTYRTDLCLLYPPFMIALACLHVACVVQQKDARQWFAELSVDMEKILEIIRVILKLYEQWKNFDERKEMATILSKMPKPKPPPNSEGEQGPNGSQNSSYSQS

CDK19 [2] = target: T2, CDK19 (Homo sapiens, UniProt Q9BWU1); assay: TR-FRET ligand displacement assay (Kinase Tracer […], Tb-anti-GST); also KINOMEscan […] inhibition at […]; format: binding
T2 construct: GST-CDK19; with Cyclin C
T2 sequence (Q9BWU1 whole entry): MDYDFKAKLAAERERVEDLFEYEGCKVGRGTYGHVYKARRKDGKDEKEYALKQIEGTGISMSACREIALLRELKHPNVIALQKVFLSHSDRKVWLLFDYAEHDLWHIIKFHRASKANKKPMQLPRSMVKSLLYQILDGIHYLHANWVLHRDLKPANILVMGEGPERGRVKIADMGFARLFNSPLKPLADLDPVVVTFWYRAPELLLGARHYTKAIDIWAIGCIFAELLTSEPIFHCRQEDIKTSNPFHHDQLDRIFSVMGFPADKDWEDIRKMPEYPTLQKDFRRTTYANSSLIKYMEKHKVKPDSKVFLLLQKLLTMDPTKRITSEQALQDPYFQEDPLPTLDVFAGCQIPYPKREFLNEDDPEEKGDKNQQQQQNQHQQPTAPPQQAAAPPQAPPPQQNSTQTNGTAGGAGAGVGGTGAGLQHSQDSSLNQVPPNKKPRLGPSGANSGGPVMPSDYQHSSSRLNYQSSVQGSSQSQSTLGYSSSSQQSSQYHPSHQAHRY
T2 sequence (P24863 whole entry partner): as the sequence (P24863 whole entry partner) above

CDK19 [3] = target: T2, CDK19; assay: as above; format: binding; remark: listed apart in the source
HASPIN [4] = target: T1, HASPIN; assay: KINOMEscan competition binding at a single concentration ([…]); conditions: read-out: % inhibition at 300 nM

SMILES | remaining binding at 0.3 µM (HASPIN [1]) [%] | IC50 (CDK8) [nM] | IC50 (CDK19 [2]) [nM] | IC50 (CDK19 [3]) [nM] | inhibition at 0.3 µM (HASPIN [4]) [%]
O=C(/C=C/c1cnccc1-c1ccc(F)cc1)Nc1ccc(CCc2nnco2)cc1 [T-418, (2E)-3-(4-(4-fluorophenyl)pyridin-3-yl)-N-(4-(2-(1,3,4-oxadiazol-2-yl)ethyl)phenyl)acrylamide] | 90 | 23 | 62 | – | –
Cc1ncccc1Oc1sc(C(N)=O)c2c1-c1c(cnn1C)CC2 [T-474, 1-methyl-8-((2-methylpyridin-3-yl)oxy)-4,5-dihydro-1H-thieno[3,4-g]indazole-6-carboxamide] | – | – | – | 1.9 | 99
